US6548284B1, “Membrane-bound metalloprotease and soluble secreted form thereof” (JCR Pharmaceuticals Co., Ltd., priority 2000, dated 2003)
Entries after “also recorded” stand apart in the source; their conditions may differ. Ends that are not written are not given here.

What was measured:
[1] = molecular target: T1, soluble form of SEP (Mus musculus, UniProt Q9JLI3); assay: SEP-catalyzed hydrolysis of bioactive peptides monitored by HPLC; assay type: biochemical; settings: by recombinant soluble SEP, substrate peak area vs control
T1 construct: partially purified the soluble form of SEP from the conditioned medium of CHO/SEP cells; made in house; host or cells: CHO-K1 cells, transient transfection; conditioned medium partially purified on a wheat germ lectin column
T1 sequence (Q9JLI3 63-765 limits assumed): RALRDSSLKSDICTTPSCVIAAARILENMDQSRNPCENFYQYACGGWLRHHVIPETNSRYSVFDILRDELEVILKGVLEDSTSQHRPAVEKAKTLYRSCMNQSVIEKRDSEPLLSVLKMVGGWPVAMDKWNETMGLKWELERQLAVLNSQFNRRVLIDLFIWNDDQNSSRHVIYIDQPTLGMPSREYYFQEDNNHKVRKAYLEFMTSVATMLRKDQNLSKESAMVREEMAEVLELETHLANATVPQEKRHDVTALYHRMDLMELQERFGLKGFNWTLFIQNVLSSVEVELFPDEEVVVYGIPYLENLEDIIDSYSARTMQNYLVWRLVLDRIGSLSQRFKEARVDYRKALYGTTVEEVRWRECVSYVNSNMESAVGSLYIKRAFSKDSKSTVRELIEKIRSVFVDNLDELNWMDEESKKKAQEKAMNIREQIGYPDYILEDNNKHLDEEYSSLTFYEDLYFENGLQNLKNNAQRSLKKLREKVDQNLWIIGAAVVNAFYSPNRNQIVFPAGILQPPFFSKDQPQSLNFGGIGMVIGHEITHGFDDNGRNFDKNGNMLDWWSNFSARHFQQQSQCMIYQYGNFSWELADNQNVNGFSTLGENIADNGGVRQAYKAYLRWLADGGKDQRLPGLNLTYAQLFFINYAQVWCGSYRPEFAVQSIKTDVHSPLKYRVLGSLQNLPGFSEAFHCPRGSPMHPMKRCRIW
Protocol: (§1) CHO-K1 cells were cultured [Emoto, N. et al., J. Biol. Chem., 274:1509-1518(1999)]. Double transfection of prepro-ET-1and ECE-1a, SEP, or SEP^Δ was performed using LipofectAMINE (Life Technologies, Inc.). Twelve hours after transfection, cells were refed with fresh medium. […] For in vitro enzymological charactenization, an SEP expression construct was transiently transfected into CHO-K1 cells. The medium was conditioned for 48 h in CHO-SFM II (Life Technologies, Inc.) and was subjected to a wheat germ lectin column (1×1 ml HiTrap wheat germ lectin; Amersham Pharmacia Biotech) equilibrated with 20 mM Tris-Cl (pH 7.4) and 0.5M NaCl. The column was washed and eluted with the same buffer containing 0.5M N-acetylglucosamine. The active fraction was subsequently subjected to a Centriprep concentrator (Amicon).
(§2) Reaction mixtures for enzyme assay (100 μl) contained 0.1 M MES-NaOH(pH 7.4), 0.5 μM peptide, and an enzyme fraction. For some experiments, the reactions were preincubated at 37° C. with various protease inhibitors for 15 min prior to the addition of the peptide. The reactions were incubated at 37° C. for 1-12 h in siliconized 0.5-ml microcentrifuge tubes. The enzyme reaction was terminated by adding 1 μl of 10 mM EDTA. The mixture was then injected into a C18 reverse-phase high pressure liquid chromatography (HPLC) column (μRPC C2/C18, ST4.6/100; Amersham Pharmacia Biotech) that was equilibrated with 10% (v/v) acetonitrile and 0.1% (v/v) trifluoroacetic acid. The column was eluted at a flow rate of 1 ml/min with a 10-80% linear gradient of acetonitrile and 0.1% trifluoroacetic acid over 43 min, followed by a 100% acetonitrile for an additional 3 min. Peptides were detected by absorbance at 220 nm.
Previously, the present inventors have shown that ECE-1 cleaves the Trp^21-Val^22 bond of big ET-1 (1-38) to produce mature ET-1(1-21) and the C-terminal half of big ET-1(22-38) without further cleaving other parts of big ET-1 or ET-1 [Xu, D. et al., Cell, 78:473-485(1994)]. To examine the cleavage site(s) of big ET-1 and mature ET-1 by recombinant SEP in an […] assay, the present inventors partially purified the soluble form of SEP from the conditioned medium of CHO/SEP cells. The present inventors then incubated relatively large amounts of big ET-1 (10 μM) and ET-1 (1.5 μM) with partially purified SEP for a prolonged period of time (12 h) while directly monitoring the cleavage by reverse-phase HPLC. Product peaks were collected, and the peptides were identified by mass spectrometry. Big ET-1 (1-38) was hydrolyzed to a significant degree (42%) by the soluble form of SEP, and HPLC resolved at least four distinct product peaks (FIG. 7B). Two peptides products (FIG. 7C, peaks 1 and 4) were co-eluted with the standards of big ET-1 (22-38) and mature ET-1 (1-21), respectively. Analysis using mass spectrometry confirmed that they were big ET-1 (22-38) and mature ET-1(1-2 1), with an m/z value for (M+H)^+ of 1810 and 2493, respectively. These finding indicate that the soluble form of SEP can produce ET-1 by cleaving at the specific Trp^21-Val^22 site of big ET-1. On the other hand, it appears that ET-1 is further digested by the soluble form of SEP. […] These two major peaks (FIG. 7D, peaks 1 and 2) from mature ET-1 were co-eluted with the peaks (FIG. […], peaks 2 and 3, respectively) produced from big ET-1 hydrolysis. Using molecular masses, one peptide product (FIG. 7; C, peak 3, and D, peak 2) was identified as ET-1 (1-16). Another peptide product (FIG. 7; C, peak 2, and D, peak 1) appeared to be the two-chain ET-1 (1-16), which is held together by two disulfide bonds between Cys^1 and Cys^15 and between Cys^3 and Cys^11, presumably produced by cleavage at one site between Ser^4 and Glu^10 of ET-1 (1-16).
Finally, the present inventors examined the SEP-catalyzed hydrolysis of other bioactive peptides that have been characterized as substrates of ECE-1 and/or NEP. […]

[2] = molecular target: T1, soluble form of SEP; assay: Inhibition of ET-1 degrading activity of recombinant soluble SEP; assay type: biochemical; settings: for SEP activity: Inhibitor 100 μM, SEP partially purified from conditioned medium of CHO/SEP cells, no inhibitor = 100, unit assumed; for inhibition of SEP activity (in words) / IC50: soluble form of SEP; for inhibition of SEP activity (in words): in vitro; for IC50: ET-1 degrading activity, dose-dependent, read-out: apparent IC50, inhibition of SEP activity
Protocol: as §1, with “Double” for “CHO-K1 cells were cultured [Emoto, N. et al., J. Biol. Chem., 274:1509-1518(1999)]. Double”
as §2
The present inventors next assessed the enzymological properties of cloned SEP by using its ET-1 degrading activity.

[3] = test system: ECE-1 and ECE-2; settings: ECE-1 vs ECE-2; cited from earlier work
[4] = molecular target: angiotensin I, P01019
[5] = molecular target: T2, synthetic human ET-1 (1-21), P05305
T2 chain: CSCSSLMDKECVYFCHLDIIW

[6] = molecular target: bradykinin, P01042
[7] = molecular target: T3, synthetic human big ET-1 (1-38), P05305
T3 chain: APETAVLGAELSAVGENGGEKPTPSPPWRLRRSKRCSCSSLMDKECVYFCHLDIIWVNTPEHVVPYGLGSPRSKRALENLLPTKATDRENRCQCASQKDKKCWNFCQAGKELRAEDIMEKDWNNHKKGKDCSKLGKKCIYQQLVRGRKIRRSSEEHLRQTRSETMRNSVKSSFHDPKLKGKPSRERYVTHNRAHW

[8] = molecular target: T4, substance P, P20366
T4 chain: RPKPQQFFGLM

[9] = molecular target: atrial natriuretic peptide

Sequence of bradykinin, P01042 (P01042 whole entry, looked up): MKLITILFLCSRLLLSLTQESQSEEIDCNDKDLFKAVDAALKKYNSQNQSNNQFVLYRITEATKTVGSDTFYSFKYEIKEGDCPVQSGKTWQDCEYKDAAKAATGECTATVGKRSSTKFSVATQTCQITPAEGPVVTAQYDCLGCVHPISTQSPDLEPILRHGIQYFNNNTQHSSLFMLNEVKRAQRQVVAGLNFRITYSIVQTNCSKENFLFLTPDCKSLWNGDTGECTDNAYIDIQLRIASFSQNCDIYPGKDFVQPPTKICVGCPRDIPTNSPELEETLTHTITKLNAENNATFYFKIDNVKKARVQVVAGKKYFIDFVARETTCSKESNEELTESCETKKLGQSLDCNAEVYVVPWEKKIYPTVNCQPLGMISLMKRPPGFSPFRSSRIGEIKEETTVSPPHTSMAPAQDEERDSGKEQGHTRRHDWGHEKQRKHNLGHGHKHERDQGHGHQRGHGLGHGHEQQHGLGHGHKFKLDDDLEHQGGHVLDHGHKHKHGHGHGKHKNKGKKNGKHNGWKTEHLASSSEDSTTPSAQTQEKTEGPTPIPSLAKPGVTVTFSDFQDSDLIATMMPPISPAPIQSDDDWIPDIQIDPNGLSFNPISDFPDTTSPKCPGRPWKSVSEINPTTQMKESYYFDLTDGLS
Sequence of angiotensin I, P01019 (P01019 whole entry, looked up): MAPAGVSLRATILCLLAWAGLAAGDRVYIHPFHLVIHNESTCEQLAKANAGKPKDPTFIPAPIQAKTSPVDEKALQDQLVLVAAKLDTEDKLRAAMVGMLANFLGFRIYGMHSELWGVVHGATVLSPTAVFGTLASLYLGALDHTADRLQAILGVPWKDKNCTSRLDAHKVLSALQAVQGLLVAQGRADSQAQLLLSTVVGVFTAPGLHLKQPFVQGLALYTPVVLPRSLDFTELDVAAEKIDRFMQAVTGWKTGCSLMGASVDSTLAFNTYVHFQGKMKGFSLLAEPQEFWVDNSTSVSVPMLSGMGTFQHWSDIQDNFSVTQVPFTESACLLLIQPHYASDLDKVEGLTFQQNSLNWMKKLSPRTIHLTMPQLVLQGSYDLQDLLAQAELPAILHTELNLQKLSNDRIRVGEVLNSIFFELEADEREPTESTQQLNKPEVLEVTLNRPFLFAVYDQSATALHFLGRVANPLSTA

Question: For “Angiotensin I: bioactive peptide substrate from American Peptides (DRVYIHPFHL)”, which “Hydrolysis (%)” value [1] is on record?
Answer: The value was >95%.

Question: With `COc1c2c(c(O)c3c1C(O)Cc1cc(CC(C)O)c(C(=O)O)c(O)c1-3)C(=O)c1cccc(O)c1C2=O` (stereo not shown) [FR901533] as the molecule, how does the SEP activity [2] read?
Answer: The SEP activity was 38%.

Question: What about the “inhibition of SEP activity (in words)” value [2] of the same molecule?
Answer: Its value is “not completely; also recorded: only partially inhibited”.

Question: Which “Hydrolysis (%)” value [1] does the source give for `CC[C@H](C)[C@@H]1NC(=O)[C@H](CCCNC(=N)N)NC(=O)[C@H](CC(=O)O)NC(=O)[C@H](CCSC)NC(=O)[C@H](CCCNC(=N)N)NC(=O)CNC(=O)CNC(=O)[C@H](Cc2ccccc2)NC(=O)[C@@H](NC(=O)[C@H](CO)NC(=O)[C@H](CO)NC(=O)[C@H](CCCNC(=N)N)NC(=O)[C@H](CCCNC(=N)N)NC(=O)[C@H](CC(C)C)NC(=O)[C@@H](N)CO)CSSC[C@@H](C(=O)N[C@@H](CC(N)=O)C(=O)N[C@@H](CO)C(=O)N[C@@H](Cc2ccccc2)C(=O)N[C@@H](CCCNC(=N)N)C(=O)N[C@@H](Cc2ccc(O)cc2)C(=O)O)NC(=O)CNC(=O)[C@H](CC(C)C)NC(=O)CNC(=O)[C@H](CO)NC(=O)[C@H](CCC(N)=O)NC(=O)[C@H](C)NC(=O)CNC1=O` [Atrial Natriuretic peptide] here?
Answer: Its value is >95%.

Question: With “Big endothelin-1: synthetic human big ET-1, inactive ET precursor (CSCSSLMDKECVYFCHLDIIWVNTPEHVVPYGLGSPRS; ends and bridges not checked; cysteine pairing not given here; UniProt P05305 53-90, looked up)” as the molecule, how does the “Hydrolysis (%)” value [1] read?
Answer: Its value is 42%.

Question: Which “Hydrolysis (%)” value [1] does the source give for RPPGFSPFR [Bradykinin] here?
Answer: The value was >95%.

Question: What does the source list for `C[C@H](CS)C(=O)N1CCC[C@H]1C(=O)O` [Captopril, captopril]?
Answer: SEP activity [2]: 103%; inhibition of SEP activity (in words) [2]: not inhibited

Question: For `CC(C)C[C@H](NP(=O)(O)O[C@@H]1O[C@@H](C)[C@H](O)[C@@H](O)[C@H]1O)C(=O)N[C@@H](Cc1c[nH]c2ccccc12)C(=O)O` [Phosphoramidon], which SEP activity [2] is on record?
Answer: The SEP activity was 8%.

Question: What about the IC50 [2] of the same molecule?
Answer: Its IC50 is ~6 nM.

Question: And the “inhibition of SEP activity (in words)” value [2]?
Answer: Its value is “inhibited”.

Question: What about the “sensitivity of ECE-1 to phosphoramidon lower than that of ECE-2” value [3] of the same molecule?
Answer: The value was 250 fold.

Question: Which results are given for `c1cnc2c(c1)ccc1cccnc12` [1,10-Phenanthroline, 1,10-phenanthroline]?
Answer: SEP activity [2]: 1%; inhibition of SEP activity (in words) [2]: inhibited

Question: With “Substance P: bioactive peptide substrate from American Peptides” as the molecule, how does the “Hydrolysis (%)” value [1] read?
Answer: Its value is >95%.

Question: Which “Hydrolysis (%)” value [1] does the source give for “Endothelin-1: human ET-1, mature endothelin peptide” here?
Answer: Its value is 92%.

Question: Which results are given for `O=C(O)CNC(=O)C(CS)Cc1ccccc1` (stereo not shown) [Thiorphan]?
Answer: SEP activity [2]: 2%; IC50 [2]: ~2000 nM; inhibition of SEP activity (in words) [2]: efficiently inhibited

B1: soluble form of SEP (soluble secreted endopeptidase), partially purified from the conditioned medium of CHO/SEP cells (protein)
chain: RALRDSSLKSDICTTPSCVIAAARILENMDQSRNPCENFYQYACGGWLRHHVIPETNSRYSVFDILRDELEVILKGVLEDSTSQHRPAVEKAKTLYRSCMNQSVIEKRDSEPLLSVLKMVGGWPVALDKWNETMGLKWELERQLAVLNSQFNRRVLIDLFIWNDDQNSSRHVIYIDQPTLGMPSREYYFQEDNNHKVRKAYPEFMTSVATMLRKDQNLSKESAMVREEMAEVLELETHLANATVPQEKRHDVTALYHRMDLMELQERFGLKGFNWTLFIQNVLSSVEVELFPDEEVVVYGIPYLENLEDIIDSYSARTMQNYLVWRLVLDRIGSLSQRFKEARVDYRKALYGTTVEEVRWRECVSYVNSNMESAVGSLYIKRAFSKDSKSTVRELIEKIRSVFVDNLDELNWMDEESKKKAQEKAMNIREQIGYPDYILEDNNKHLDEEYSSLTFYEDLYFENGLQNLKNNAQRSLKKLREKVDQNLWIIGAAVVNAFYSPNRNQIVFPAGILQPPFFSKDQPQSLNFGGIGMVIGHEITHGFDDNGRNFDKNGNMLDWWSNFSARHFQQQSQCMIYQYGNFSWELADNQNVNGFSSLGENIADNGGVRQAYKAYLRWLADGGKDQRLPGLNLTYAQLFFINYAQVWCGSYRPEFAVQSIKTDVHSPLKYRVLGSLQNLPGFSEAFHCPRGSPMHPMKRCRIW
Question: Which Hydrolysis (%) [4] does the source give for B1 here?
Answer: The Hydrolysis (%) was > 95%.

Question: And the Hydrolysis (%) [5]?
Answer: Its Hydrolysis (%) is 92%.

Question: What about the Hydrolysis (%) [6] of the same molecule?
Answer: Its Hydrolysis (%) is > 95%.

Question: What about the Hydrolysis (%) [7] of the same molecule?
Answer: Its Hydrolysis (%) is 42%.

Question: And the Hydrolysis (%) [8]?
Answer: The Hydrolysis (%) was > 95%.

Question: And the Hydrolysis (%) [9]?
Answer: The Hydrolysis (%) was > 95%.
